From PubChem BioAssay (NCI)
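GI50 marks 50% less growth. TGI is the concentration that stops growth completely.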

What was measured:
Experiment in all cases: inhibition of tumour cell growth, NCI panel, 384-well format
786-0 renal = system: 786-0 renal
A498 renal = system: A498 renal
A549 NSCLC = system: A549 NSCLC
ACHN renal = system: ACHN renal
BT-549 breast = system: BT-549 breast
CAKI-1 renal = system: CAKI-1 renal
CCRF-CEM leukemia = system: CCRF-CEM leukemia
COLO 205 colon = system: COLO 205 colon
DU-145 prostate = system: DU-145 prostate
HCC-2998 colon = system: HCC-2998 colon
HCT-116 colon = system: HCT-116 colon
HCT-15 colon = system: HCT-15 colon
HL-60(TB) leukemia = system: HL-60(TB) leukemia
HOP-62 NSCLC = system: HOP-62 NSCLC
HOP-92 NSCLC = system: HOP-92 NSCLC
HT29 colon = system: HT29 colon
IGROV1 ovarian = system: IGROV1 ovarian
K-562 leukemia = system: K-562 leukemia
KM12 colon = system: KM12 colon
LOX IMVI melanoma = system: LOX IMVI melanoma
M14 melanoma = system: M14 melanoma
MALME-3M melanoma = system: MALME-3M melanoma
MCF7 breast = system: MCF7 breast
MDA-MB-231 breast = system: MDA-MB-231 breast
MDA-MB-435 melanoma = system: MDA-MB-435 melanoma
MDA-MB-468 breast = system: MDA-MB-468 breast
MOLT-4 leukemia = system: MOLT-4 leukemia
NCI-H226 lung = system: NCI-H226 lung
NCI-H23 lung = system: NCI-H23 lung
NCI-H322M lung = system: NCI-H322M lung
NCI-H460 NSCLC = system: NCI-H460 NSCLC
NCI-H522 lung = system: NCI-H522 lung
NCI/ADR-RES ovarian = system: NCI/ADR-RES ovarian
OVCAR-3 ovarian = system: OVCAR-3 ovarian
OVCAR-4 ovarian = system: OVCAR-4 ovarian
OVCAR-5 ovarian = system: OVCAR-5 ovarian
OVCAR-8 ovarian = system: OVCAR-8 ovarian
PC-3 prostate = system: PC-3 prostate
RPMI-8226 leukemia = system: RPMI-8226 leukemia
RXF 393 renal = system: RXF 393 renal
SF-268 CNS = system: SF-268 CNS
SF-295 CNS = system: SF-295 CNS
SF-539 CNS = system: SF-539 CNS
SK-MEL-2 melanoma = system: SK-MEL-2 melanoma
SK-MEL-28 melanoma = system: SK-MEL-28 melanoma
SK-MEL-5 melanoma = system: SK-MEL-5 melanoma
SK-OV-3 ovarian = system: SK-OV-3 ovarian
SN12C renal = system: SN12C renal
SNB-19 CNS = system: SNB-19 CNS
SR leukemia = system: SR leukemia
SW-620 colon = system: SW-620 colon
T-47D breast = system: T-47D breast
TK-10 renal = system: TK-10 renal
U251 glioblastoma = system: U251 glioblastoma
UACC-257 melanoma = system: UACC-257 melanoma
UACC-62 melanoma = system: UACC-62 melanoma
UO-31 renal = system: UO-31 renal

## Cc1cc(C(=O)NC(C)(C)C)cc(C#Cc2ccc3c4c(oc3c2)C(C)(C)c2cc(NS(C)(=O)=O)ccc2C4=O)n1
786-0 renal
  GI50: 642 nM
  TGI: 2200 nM
A498 renal
  GI50: 833 nM
  TGI: 4660 nM
A549 NSCLC
  GI50: 2270 nM
  TGI: > 100000 nM
ACHN renal
  GI50: 815 nM
  TGI: 8300 nM
BT-549 breast
  GI50: 1150 nM
  TGI: 4820 nM
CAKI-1 renal
  GI50: 549 nM
  TGI: 4110 nM
CCRF-CEM leukemia
  GI50: 1260 nM
  TGI: 2830 nM
COLO 205 colon
  GI50: 1280 nM
  TGI: 3420 nM
DU-145 prostate
  GI50: 1480 nM
  TGI: 8910 nM
HCC-2998 colon
  GI50: 1730 nM
  TGI: 8550 nM
HCT-116 colon
  GI50: 1020 nM
  TGI: > 100000 nM
HCT-15 colon
  GI50: 862 nM
  TGI: > 100000 nM
HL-60(TB) leukemia
  GI50: 591 nM
  TGI: 1780 nM
HOP-62 NSCLC
  GI50: 2130 nM
  TGI: 6760 nM
HOP-92 NSCLC
  GI50: 198 nM
  TGI: 980 nM
HT29 colon
  GI50: 774 nM
  TGI: 3060 nM
IGROV1 ovarian
  GI50: 2150 nM
  TGI: > 100000 nM
K-562 leukemia
  GI50: 1310 nM
  TGI: > 100000 nM
KM12 colon
  TGI: 1020 nM
LOX IMVI melanoma
  GI50: 3200 nM
  TGI: 7420 nM
M14 melanoma
  GI50: 1080 nM
  TGI: 3340 nM
MALME-3M melanoma
  GI50: 695 nM
  TGI: 3010 nM
MCF7 breast
  GI50: 985 nM
  TGI: 4350 nM
MDA-MB-231 breast
  GI50: 3450 nM
  TGI: > 100000 nM
MDA-MB-435 melanoma
  GI50: 410 nM
  TGI: 2030 nM
MDA-MB-468 breast
  GI50: 985 nM
  TGI: 2850 nM
MOLT-4 leukemia
  GI50: 565 nM
  TGI: 1700 nM
NCI-H226 lung
  GI50: 1310 nM
  TGI: 5410 nM
NCI-H23 lung
  GI50: 602 nM
  TGI: 2630 nM
NCI-H322M lung
  GI50: 2670 nM
  TGI: > 100000 nM
NCI-H460 NSCLC
  GI50: 1180 nM
  TGI: 3020 nM
NCI-H522 lung
  GI50: 813 nM
  TGI: 4130 nM
NCI/ADR-RES ovarian
  GI50: 1590 nM
  TGI: 4170 nM
OVCAR-3 ovarian
  GI50: 1460 nM
  TGI: 4420 nM
OVCAR-4 ovarian
  GI50: 1340 nM
  TGI: 6330 nM
OVCAR-5 ovarian
  GI50: 2080 nM
  TGI: 9850 nM
OVCAR-8 ovarian
  GI50: 1810 nM
  TGI: 6230 nM
PC-3 prostate
  GI50: 2470 nM
  TGI: 9210 nM
RPMI-8226 leukemia
  GI50: 168 nM
  TGI: 410 nM
RXF 393 renal
  GI50: 188 nM
  TGI: 410 nM
SF-268 CNS
  GI50: 2170 nM
  TGI: > 100000 nM
SF-295 CNS
  GI50: 1330 nM
  TGI: 3880 nM
SF-539 CNS
  GI50: 1160 nM
  TGI: 5930 nM
SK-MEL-2 melanoma
  GI50: 496 nM
  TGI: 3100 nM
SK-MEL-28 melanoma
  GI50: 971 nM
  TGI: 5510 nM
SK-MEL-5 melanoma
  GI50: 913 nM
  TGI: 2160 nM
SK-OV-3 ovarian
  GI50: 1930 nM
  TGI: 7040 nM
SN12C renal
  GI50: 934 nM
  TGI: > 100000 nM
SNB-19 CNS
  GI50: 2920 nM
  TGI: > 100000 nM
SR leukemia
  GI50: 198 nM
  TGI: 420 nM
SW-620 colon
  GI50: 1260 nM
  TGI: 3540 nM
T-47D breast
  GI50: 631 nM
  TGI: 2270 nM
TK-10 renal
  GI50: 1800 nM
  TGI: 29200 nM
U251 glioblastoma
  GI50: 1890 nM
  TGI: > 100000 nM
UACC-257 melanoma
  GI50: 977 nM
  TGI: 3070 nM
UACC-62 melanoma
  GI50: 673 nM
  TGI: 3960 nM
UO-31 renal
  GI50: 365 nM
  TGI: 1710 nM
